# Test results: patent US10081602B2, “Opioid agonists and uses thereof” (Nektar Therapeutics, priority 2013, dated 2018)
# Columns and labels:
# MOR = MOR (Homo sapiens (Human), UniProt P35372); experiment: cAMP accumulation assay in forskolin-stimulated CHO-K1 cells stably expressing MOR; assay type: cell-based
# Description: Inhibition of cAMP accumulation by select compounds was measured in forskolin-stimulated CHO-K1 cells stably expressing KOR. CHO-K1 cells stably expressing KOR were harvested using Invitrogen Cell Dissociation Buffer, and then centrifuged at 1200 rpm for five minutes. The supernatant was aspirated and cells were resuspended in assay buffer to a density of 4×10^5 cells/mL. 25 μL of cells were added into a white half-area 96 well plate. Fourteen point serial dilutions of test compounds were carried out in assay buffer (PBS with 0.5 mM IBMX). Ketazocine was used as a positive control for each assay. 12.5 μL of compound was added to the cells in duplicate for each test concentration. The cells were then stimulated with 12.5 μL forskolin at a final concentration 20 μM. Cells were incubated for 45 minutes in a 37° C., 5% CO2 water jacketed incubator. CisBio HTRF cAMP assay reagent was used for cAMP quantitation. Two hours after substrate addition, signal at 665/615 nm was measured using the Perkin Elmer Victor X4 HTRF reader. Data analysis was done using GraphPad Prism, sigmoidal dose-response (variable slope) curve fitting.
# Using a similar approach, inhibition of cAMP accumulation by select compounds was also determined in forskolin-simulated CHO-K1 cells stably expressing MOR (wherein for this assay a density of 8×10^5 cells/mL was used and the positive control was DAMGO). […]
# [1] = biological target: human mu (MOR) opioid receptor (Homo sapiens (Human), UniProt P35372); experiment: Radioligand competition binding assay, mu opioid receptor; conditions: [3H]Naloxone; for inhibition at 10 µM: read-out: Mu receptor % inhibition at single concentration
# Description: The binding affinities of certain compounds of the present invention were evaluated using radioligand binding assays in membranes prepared from CHO-K1 cells expressing recombinant human kappa (KOR) or mu (MOR) opioid receptors.
# Competition binding experiments were conducted by incubating membrane protein to equilibrium in triplicate in the presence of a fixed concentration of radioligand and increasing concentrations of test compound for evaluation of binding to KOR or single concentration (10 μM) of test compound for evaluation of binding to MOR in 101 μL final volume. The radioligands used were specific for each receptor type, and the assay conditions are described in Table 1. Following incubations, the membranes were rapidly filtered through GF/B filter plate (presoaked with 0.5% polyethyleneimine), washed five times with cold 50 mM Tris-HCl, pH 7.5, and the bound radioactivity was then measured by liquid scintillation counting. Non-specific binding was measured in the presence of excess ligand; this value was subtracted from the total binding to yield the specific binding at each test concentration.
# Ki (affinity of test compound) was obtained using the Cheng Prusoff correction using experimental Kd (affinity of radioligand) values that were previously determined under these assay conditions. For MOR binding, compounds were tested at one concentration, 10 μM, to evaluate its ability to inhibit specific radioligand binding. The values are expressed as percent inhibition of specific binding and greater than 50% inhibition of binding was considered to be significant.
# With respect to determining MOR binding, an approach similar to one used for KOR binding was used.
# [2] = system: acetic acid-induced writhing (visceral pain) in mice; experiment: Acetic acid writhing (AAW) analgesic assay; assay type: in vivo
# Description: An analgesic assay was used to determine whether a given compound can reduce and/or prevent visceral pain in mice. The assay utilizes Swiss Albino or CD-1 male mice (5-10 mice per group), each mouse being approximately 0.015-0.030 kg on the study day. Mice were treated according to standard protocols.
# The animal was given an intraperitoneal (IP) injection of an irritant (acetic acid) that induces “writhing” which may include: contractions of the abdomen, twisting and turning of the trunk, arching of the back and the extension of the hindlimbs. Mice are given a single IP injection (0.1 mL/10 g bodyweight) of a 0.5% acetic acid solution. After the injection the animals were returned to their observation enclosure and their behavior was observed. Contractions were counted between 0 and 20 minutes after the injection. The animals were used once. In certain instances, the test articles were administered at multiple doses to determine a dose response curve.
# Table 4 provides the results for certain compounds of the present invention that were administered subcutaneously. Table 5 provides the results for certain compounds of the present invention that were administered orally.
smiles,measurement,setting,value
"COCCOCCOCCOCCOCCO[C@@H]1c2ccc(O)cc2[C@]2(C)CCN(CC3CC3)[C@H]1[C@@H]2C [Example 25, (1R,2S,6R,11R)-1-(2,5,8,11,14-pentaoxahexadecan-16-yloxy)-3-(cyclopropylmethyl)-6,11-dimethyl-1,2,3,4,5,6-hexahydro-2,6-methanobenzo[d]azocin-8-ol]",EC50,MOR,1.21 µM
same,Ki,[1]; CHO-K1 membranes,3.92 µM
"C[C@H]1[C@H]2C(=O)c3ccc(O)cc3[C@]1(C)CCN2CC1CC1 [Ketazocine, (2S,6R,11R)-3-(cyclopropylmethyl)-8-hydroxy-6,11-dimethyl-3,4,5,6-tetrahydro-2,6-methanobenzo[d]azocin-1(2H)-one, reference compound]",AAW % Efficacy,"[2]; oral, 0.1 mg/kg",12.8%
same,AAW % Efficacy,"[2]; oral, 1 mg/kg",34.5%
same,AAW % Efficacy,"[2]; oral, 10 mg/kg",58.9%
same,AAW % Efficacy,"[2]; oral, 100 mg/kg",100.0%
same,AAW % Efficacy,"[2]; subcutaneous, 0.01 mg/kg",10.57%
same,AAW % Efficacy,"[2]; subcutaneous, 0.1 mg/kg",50.03%
same,AAW % Efficacy,"[2]; subcutaneous, 1 mg/kg",100.00%
same,inhibition at 10 µM,[1],99.2%
"COCCOCCOCCOc1ccc2c(c1)[C@]1(C)CCN(CC3CC3)[C@H](C2=O)[C@@H]1C [Example 4, (2S,6R,11R)-3-(Cyclopropylmethyl)-8-{2-[2-(2-methoxyethoxy)ethoxy]ethoxy}-6,11-dimethyl-3,4,5,6-tetrahydro-2,6-methano-3-benzazocin-1(2H)-One]",AAW % Efficacy,"[2]; oral, 200 mg/kg",3.8%
same,AAW % Efficacy,"[2]; subcutaneous, 3 mg/kg",0.0%
same,AAW % Efficacy,"[2]; subcutaneous, 10 mg/kg",39.7%
same,AAW % Efficacy,"[2]; subcutaneous, 30 mg/kg",100.0%
same,inhibition at 10 µM,[1],89.2%
"COCCOCCOCCOCCOCCOCCOCCOc1ccc2c(c1)[C@]1(C)CCN(CC3CC3)[C@H](C2=O)[C@@H]1C [Example 6, (2S,6R,11R)-3-(Cyclopropylmethyl)-8-(2,5,8,11,14,17,20-heptaoxadocosan-22-yloxy)-6,11-dimethyl-3,4,5,6-tetrahydro-2,6-methano-3-benzazocin-1(2H)-One]",inhibition at 10 µM,[1],48.6%
